Experimental data: article PMC6383986, “Fragment-Based Covalent Ligand Screening Enables Rapid Discovery of Inhibitors for the RBR E3 Ubiquitin Ligase HOIP” (Journal of the American Chemical Society, 2019)
“Also recorded” adds a separate entry of the source.

Experiments:
HOIP RBR domain = target: T1, HOIP RBR domain (Homo sapiens, UniProt Q96EP0); test: In vitro polyubiquitination assay; format: biochemical; conditions: HOIP RBR preincubated with compound (200 μM) overnight; E2 UbcH7 or UbcH5c; vs DMSO
T1 construct: made in house; host or cells: E. coli BL21-GOLD(DE3)
T1 sequence (Q96EP0 697-1072): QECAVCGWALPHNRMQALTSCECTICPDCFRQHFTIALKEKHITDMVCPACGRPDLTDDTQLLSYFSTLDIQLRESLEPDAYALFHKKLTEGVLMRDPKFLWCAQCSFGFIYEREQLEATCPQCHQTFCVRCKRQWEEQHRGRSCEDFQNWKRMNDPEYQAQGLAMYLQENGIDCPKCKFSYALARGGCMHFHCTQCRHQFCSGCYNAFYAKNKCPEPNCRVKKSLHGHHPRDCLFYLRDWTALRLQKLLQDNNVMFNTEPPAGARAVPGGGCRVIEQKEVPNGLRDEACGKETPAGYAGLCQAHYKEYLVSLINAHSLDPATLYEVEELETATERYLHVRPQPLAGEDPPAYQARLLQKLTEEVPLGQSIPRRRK
Description: 4.3 Polyubiquitination assay
The ubiquitination assay was essentially carried out as previously described.12 The HOIP RBR domain was pre-incubated with compounds (5) or (6), or DMSO in 50 mM HEPES, 150 mM NaCl, pH 7.5 buffer at 23 °C with gentle shaking for overnight (20-24 h). E1, E2 (UbcH7 or UbcH5c), ubiquitin, and MgCl2 were added to each vial, and aliquots of 15 µL were withdrawn to mark time zero. ATP was then added and aliquots of 15 µL were withdrawn after 5, 15, 30, and 60 min incubation. Final concentrations: E1 (1 µM), E2 (5 µM), E3 (5 µM), compounds (200 µM), DMSO (1%), ubiquitin (40 µM), MgCl2 (20 mM), ATP (10 mM); reaction volume 100 µL. The aliquots were analyzed by SDS PAGE (Figure 4A and Supplementary Figure S9) as described below (section

HOIP RBR R1032A mutant = target: T2, HOIP RBR R1032A mutant (Homo sapiens, UniProt Q96EP0, R1032A); test: Protein LC-MS library screen, covalent labeling; format: binding; conditions: 20 μM compound, 2 μM protein, 24 h incubation
T2 construct: 697-1072; made in house; host or cells: E. coli BL21-GOLD(DE3)
T2 sequence (Q96EP0 697-1072 R1032A): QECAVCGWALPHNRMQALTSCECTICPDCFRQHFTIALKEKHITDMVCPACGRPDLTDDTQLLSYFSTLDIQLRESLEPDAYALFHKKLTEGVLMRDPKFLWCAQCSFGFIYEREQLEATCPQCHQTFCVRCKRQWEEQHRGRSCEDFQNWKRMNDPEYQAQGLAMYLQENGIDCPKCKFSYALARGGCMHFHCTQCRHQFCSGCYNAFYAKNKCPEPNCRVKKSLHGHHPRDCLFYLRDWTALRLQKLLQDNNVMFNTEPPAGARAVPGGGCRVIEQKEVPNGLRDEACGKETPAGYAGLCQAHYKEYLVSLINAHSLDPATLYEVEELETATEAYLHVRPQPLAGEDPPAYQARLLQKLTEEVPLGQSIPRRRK
Description: 3.1 Experimental procedures
Acquisition of mass spectrometry data was carried out using positive electrospray ionisation (ESI) on an Agilent 6224 TOF LC-MS system equipped with a Diode Array Detector (DAD), a Wellplate sampler (held at 10 °C) and an Agilent PLRP-S reverse phase column (50 mm, 1 mm diameter, 5 µm particle size) held at 70 °C. The following mobile phases were used for the LC: Mobile phase A (MP A) = 0.2% Formic acid in water, v/v; Mobile phase B (MP B) = 0.2% Formic acid in MeCN, v/v. The following LC method was employed: 0-0.5 min (10→30% B in A, v/v), 0.5-5 min (30→55% […]
mL/min. Injection volume: 10 µL. The run length was 8 min, and equilibration time 1 min after each sample. […] Between 0.5 and 6 min the TOF mass spectrometer recorded 1 spectrum per second with a scan range between 700 and 2200 AMU. […]
thawed individually and analyzed by protein mass spectrometry as described above. The total ion counts (TICs) detected for unlabelled HOIP and labelled HOIP-(5) conjugate within a peak elution range of 10 seconds were used to calculate the ratio of labelled HOIP RBR over total HOIP RBR content for each sample. The averaged data from 3 independent experiments were analyzed according to a two-step model of reversible ligand binding followed by irreversible covalent […]

COC(=O)/C=C/CNC(=O)c1cc2c([nH]c1=O)CCC2 [Compound 5] was tested, and the polyubiquitin chain formation (HOIP RBR domain) was “fully abolished chain formation; also recorded: complete inhibition of polyubiquitin chain formation” and the “labeling of HOIP RBR R1032A” value (HOIP RBR R1032A mutant) was > 85%.
